{"source": "patent US20090105349A1", "about": "“ANDROGEN MODULATORS” (WARNER-LAMBERT COMPANY LLC, priority 2004, published 2009)", "key": {"[1]": {"test_system": "male C3H/HeN mice (telogen to anagen conversion)", "type": "in vivo", "settings": "mouse, in vivo", "source_text": "While this model is a significant improvement over the telogen conversion assay as a model for human baldness, it suffers from a number of practical disadvantages. The macaques are expensive, relatively rare, labor intensive to maintain, and require long wash out periods between testing. […] Thus, the model relates to a modification of the existing telogen conversion assay. Male C3H/HeN mice approximately 7 weeks old are utilized. These animals are also uniformly in telogen, like their female counterparts. However, once shaven, the androgens inherently present in these male mice inhibit the conversion of the hair follicles to the anagen phase. An anti-androgen will block this androgenic effect and the follicles will convert to anagen, like their female counterparts.\nThe compounds shown below in Table IV were submitted for further testing utilizing the modified telogen conversion assay, described above. The testing was carried out in the following manner.\nMale C3H/HeN mice, 6 to 7 weeks old (Charles River Laboratories, Raleigh, N.C.) were used for the study. Fur was clipped from the dorsal region of the mice prior to initiation of the study. Only mice with pink skin, a visual indication of the telogen phase, were selected for inclusion in the study.\nA second group of animals received only the vehicle to serve as a control. Treatments were applied twice daily for 4 weeks.\nThe hair growth response was quantified by recording, for each animal, the day on which signs of hair growth first appeared over the treated area. The first sign of anagen was the darkening of skin color as melanocytes in the follicles started to synthesize melanin in preparation for the production of pigmented hairs. […] The day on which anagen was initiated in 50% of the test animals for both the treatment group and the vehicle group is reported below in Table IV."}, "[2]": {"test_system": "male Syrian hamsters (ear sebaceous glands, sebum)", "experiment": "Animal model for inhibition of sebum production (hamster ear)", "type": "in vivo, Syrian hamster", "settings": "3 % w/v, 4 weeks", "experimental": "Arch. Derm. […] This model uses male Syrian hamsters, whose ears contain sebaceous glands.\nTesting for sebum inhibition was carried out in the following manner. Male Syrian hamsters aged 9 to 10 weeks were introduced into the laboratory environment and acclimated for 2 weeks prior to use in the study. Each group consisted of 5 animals and run in parallel with vehicle and positive controls. Prior to administration, a sufficient quantity each compound was dissolved in 1 mL of the vehicle identified in Table III to achieve the final concentration reported in Table Ill.\nAnimals were dosed topically twice daily, five days a week, for 4 weeks. Each dose consisted of 25 micro liters of vehicle control or drug. The dose was applied to the ventral surfaces of both the right and left ears. All animals were sacrificed approximately 18-24 hours after the final dose. The right ears were collected from each animal and used for sebum analysis.\nThe ears were prepped for HPLC analysis in the following manner. One 8 mm distal biopsy punch was taken, just above the anatomical “V” mark in the ear to normalize the sample area. The punch was pulled apart. The ventral biopsy surface (the area where the topical dose was directly applied to the sebaceous glands) was retained for testing and the dorsal surface of the biopsy punch was discarded.\nTissue samples were blown with N2 gas and stored at −80° C. under nitrogen until HPLC analysis. In addition to ear samples, an aliquot of each drug and vehicle (at least 250 ul) was also stored at −80° C. for inclusion in the HPLC analysis.\nHPLC analysis was carried out on an extract of the tissue sample. Tissue samples were contacted with 3 ml of solvent (a 4:1 admixture of 2,2,4-trimethylpentane and isopropyl alcohol). The mixture was shaken for 15 minutes and stored overnight at room temperature, protected from light. The next morning 1 milliliter of water was added to the sample and shaken for 15 minutes. The sample was then centrifuged at approximately 1500 rpm for 15 minutes. Two ml of the organic phase (top layer) was transferred to a glass vial, dried at 37° C., under nitrogen, for approximately 1 hour, and then lyophilized for approximately 48 hours. The samples were then removed from the lyophilizer and each vial was reconstituted with 600 μl of solvent A (trimethylpentane/tetrahydrofuran (99:1). The samples were then recapped and vortexed for 5 minutes.\n200 μl of each sample was then transferred to a pre-labeled 200 μl HPLC vial with 200 μL glass inserts. The HPLC vials were placed in the autosampler tray for the Agilent 1100 series HPLC unit. The Agilent 1100 HPLC system consisted of a thermostated autosampler, a quarternary pump, a column heater, and an A/D interface module. All components were controlled by Agilent ChemStation software. A Waters Spherisorb S3W 4.6×100 mm analytical column was maintained at 30° C. by the Agilent column heater unit. The HPLC autosampler was programmed to maintain the sample temperature at 20 C throughout the run.\n10 uL of each sample was injected in triplicate into the column. Two solvents were used for the solvent gradient. Solvent A was an admixture of trimethylpentane and tetrahydrofuran (99:1). Solvent B was ethylacetate. The gradient utilized is described in the table below: […]\nThe Sedex 75 Evaporative Light Scattering Detector (ELSD) was operated at 45° C. with a gain of 5, and N2 pressure maintained at 3.1 bar. Analog signal obtained by the instrument was sent to the Agilent A/D interface module where it was converted to a digital output. The conversion was based on a 10000 mAU/volt set point and the data rate was set at 10 Hz (0.03 min). The resulting digital output was then feed into the Agilent ChemStation software for integration of the peak area."}, "[3]": {"settings": "Vehicle #1 (polyethylene glycol/transcutol/ethanol 20/20/60), topical twice daily, vs vehicle control"}}}
{"smiles": "CSc1ccccc1Oc1ccc(C#N)cc1Cl", "note": "[Example 5, 3-Chloro-4-(2-methylsulfanyl-phenoxy)-benzonitrile]", "values": [{"measurement": "Anagen-Trx (day on which anagen was initiated in 50% of the test animals)", "setting": "[1]", "result": ">35", "unit": "days"}, {"measurement": "% CE Reduction", "setting": "[2]; [3]", "result": 27, "unit": "%"}, {"measurement": "% WE Reduction", "setting": "[2]; [3]", "result": 39, "unit": "%"}, {"measurement": "% WE & CE Reduction", "setting": "[2]; Vehicle #1, topical twice daily, sum of WE and CE", "result": 66, "unit": "%"}]}
